Values quoted from earlier work in patent publication US6747151B2, “Azo compounds for type I phototherapy” (Mallinckrodt, Inc., priority 2001, dated 2004).

Assays:
tumors = details: after administration
melanoma cells = details: after administration

Compound | uptake of porphyrins in tumors compared to normal tissues (tumors) | levels of melanin in melanoma cells compared to normal cells (melanoma cells)
NCC(=O)CCC(=O)O [delta-aminolevulinic acid] | two-fold | 
dihydroxyindole-2-carboxylic acid |  | substantially enhanced
